According to patent US20090239841A1, “Diaryl Ureas as CB1 Antagonists” (priority 2004, published 2009):

Target: T1, hCB1 (Homo sapiens, UniProt P21554)
T1 construct: made in house; host or cells: Sf9 insect cells (baculovirus), P2 membranes
Assay: Agonist-induced GTP binding (GTPγ35S) assay at CB1, Example 8
Type: biochemical
Settings: Table II; IC50 at CB1, GTP binding with 1 nM CP55,940; read-out: IC50
Description: As noted above, compounds provided herein are CB1 antagonists. Certain such compounds are non-competitive CB1 antagonists. In addition, or alternatively, certain compounds provided herein display CB1 specificity. CB1 antagonist activity may be confirmed using an agonist-induced GTP binding assay, such as the assay described in Example 8. Such assays employ a CB1-containing cell membrane preparation (e.g., a preparation of membranes of insect cells that recombinantly express CB1) to determine the effect of a test compound on CB1 agonist-induced GTP binding to CB1. Briefly, a first cell membrane preparation comprising CB1 is contacted with: (i) labeled GTP; (ii) a CB1 agonist; and (iii) a test compound to yield a test membrane preparation. Simultaneously, or in either order, a second cell membrane preparation comprising CB1 is contacted with: (i) labeled GTP; and (ii) a CB1 agonist to yield a control membrane preparation. The labeled GTP is preferably GTPγ^35S; a representative CB1 agonist is CP55,940. Such contact is performed under conditions that are suitable for GTP binding to CB1, such as the conditions described in Example 8. The concentrations of labeled GTP and CB1 agonist used are generally concentrations that are sufficient to result in a detectable increase in the amount of labeled GTP bound to the membrane preparation in the presence of CB1 agonist. Such concentrations may be determined by routine experimentation; representative suitable concentrations are provided in Example 8. Generally, a range of test compound concentrations is used (e.g., ranging from 10^−10M to 10^−5M).
After sufficient contact (e.g., incubation) to allow GTP binding to the membrane preparations, a signal that corresponds to (represents) the amount of bound, labeled GTP is detected (typically, unbound labeled GTP is first removed via a washing step). In other words, simultaneously or in either order: (i) a test signal that represents an amount of bound, labeled GTP in the test membrane preparation is detected; and (ii) a control signal that represents an amount of bound, labeled GTP in the control membrane preparation is detected. The nature of the signal detected is determined by the type of label used. For example, if the GTP is radioactively labeled, the signal detected is radioactive decay (e.g., via liquid scintillation spectrometry). The CB1 antagonist activity of the test compound is then determined by comparing the test signal with the control signal.
This assay can also be used to detect partial agonism mediated by antagonist compounds. A compound being analyzed in this assay is referred to herein as a “test compound.” Agonist-stimulated GTP binding activity is measured as follows: Four independent baculoviral stocks (one directing the expression of hCB1 and three directing the expression of each of the three subunits of a heterotrimeric G-protein) are used to infect a culture of Sf9 cells as described in Example 5.
Agonist-stimulated GTP binding on purified membranes (as described in Example 6) is initially assessed using the cannabinoid agonist CP55,940 to ascertain that the receptor/G-protein-alpha-beta-gamma combination(s) yield a functional response as measured by GTP binding.
P2 membranes are resuspended by Dounce homogenization (tight pestle) in GTP binding assay buffer (50 mM Tris pH 7.4, 120 mM NaCl, 5 mM MgCl2, 2 mM EGTA, 0.1% BSA, 0.1 mM bacitracin, 10 KIU/mL aprotinin, 5 μM GDP) and added to reaction tubes at a concentration of 10 μg protein/reaction tube. After adding increasing doses of the agonist CP55,940 at concentrations ranging from 10^−12 M to 10^−6 M, reactions are initiated by the addition of […] GTPγ^35S. In competition experiments, non-radiolabeled test compounds are added to separate assays at concentrations ranging from 10^−10 M to 10^−5 M along with 1 nM CP55,940 to yield a final volume of 0.25 mL. […]

T1 sequence (P21554 whole entry): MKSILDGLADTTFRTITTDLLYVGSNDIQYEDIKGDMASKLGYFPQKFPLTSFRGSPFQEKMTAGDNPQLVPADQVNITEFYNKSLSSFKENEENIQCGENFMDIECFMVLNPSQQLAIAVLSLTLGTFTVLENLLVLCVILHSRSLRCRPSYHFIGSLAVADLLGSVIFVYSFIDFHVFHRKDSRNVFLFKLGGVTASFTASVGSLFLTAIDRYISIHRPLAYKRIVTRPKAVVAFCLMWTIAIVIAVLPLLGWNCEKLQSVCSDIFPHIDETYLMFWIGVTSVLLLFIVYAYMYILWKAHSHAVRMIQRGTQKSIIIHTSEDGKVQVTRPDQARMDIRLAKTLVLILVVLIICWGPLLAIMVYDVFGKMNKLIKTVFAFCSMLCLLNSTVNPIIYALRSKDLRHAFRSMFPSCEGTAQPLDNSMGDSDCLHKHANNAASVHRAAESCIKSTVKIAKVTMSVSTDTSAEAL

Row | SMILES | IC50 [nM]
1 | O=C(Nc1ccc(OC(F)F)cc1)Nc1cccc(-c2cccnc2)c1 [Compound 63, N-[4-(difluoromethoxy)phenyl]-N′-(3-pyridin-3-ylphenyl)urea] | < 2000
2 | O=C(Nc1ccc(OC(F)F)cc1)Nc1cccc(-c2cncnc2)c1 [Compound 64, N-[4-(difluoromethoxy)phenyl]-N′-(3-pyrimidin-5-ylphenyl)urea] | < 2000
3 | O=C(Nc1ccc(OC(F)F)cc1)Nc1cccc(-c2cnccn2)c1 [Compound 65, N-[4-(difluoromethoxy)phenyl]-N′-(3-pyrazin-2-ylphenyl)urea] | < 2000
4 | O=C(Nc1ccc(OC(F)F)cc1)Nc1cccc(-c2ccc(C(F)(F)F)cn2)c1 [Compound 66, N-[4-(difluoromethoxy)phenyl]-N′-{3-[5-(trifluoromethyl)pyridin-2-yl]phenyl}urea] | < 2000
5 | O=C(Nc1ccc(OC(F)F)cc1)Nc1cccc(-c2ccc3ncccc3c2)c1 [Compound 67, N-[4-(difluoromethoxy)phenyl]-N′-(3-quinolin-6-ylphenyl)urea] | < 2000
6 | O=C(Nc1ccc(OC(F)F)cc1)Nc1cccc(-c2cncc3ccccc23)c1 [Compound 68, N-[4-(difluoromethoxy)phenyl]-N′-(3-isoquinolin-4-ylphenyl)urea] | < 2000
7 | O=C(Nc1ccc(OC(F)F)cc1)Nc1cccc(-c2cnc3ccccc3c2)c1 [Compound 69, N-[4-(difluoromethoxy)phenyl]-N′-(3-quinolin-3-ylphenyl)urea] | < 2000
8 | Cc1ccc2cc(-c3cccc(NC(=O)Nc4ccc(OC(F)F)cc4)c3)ccc2n1 [Compound 70] | < 2000
9 | O=C(Nc1ccc(OC(F)F)cc1)Nc1cccc(-c2nccs2)c1 [Compound 71] | < 2000
10 | COc1ccc(-c2cccc(NC(=O)Nc3ccc(OC(F)F)cc3)c2)cn1 [Compound 72] | < 2000
11 | N#Cc1cncc(-c2cccc(NC(=O)Nc3ccc(OC(F)F)cc3)c2)c1 [Compound 73, N-[3-(5-cyanopyridin-3-yl)phenyl]-N′-[4-(difluoromethoxy)phenyl]urea] | < 2000
12 | O=C(Nc1ccc(OC(F)F)cc1)Nc1cccc(-c2ccc(Cl)cn2)c1 [Compound 74, N-[3-(5-chloropyridin-2-yl)phenyl]-N′-[4-(difluoromethoxy)phenyl]urea] | < 2000
13 | CCc1ccc(NC(=O)Nc2cccc(-c3ccc(Cl)cn3)c2)cc1 [Compound 75, N-[3-(5-chloropyridin-2-yl)phenyl]-N′-(4-ethylphenyl)urea] | < 2000
14 | O=C(Nc1ccc(OC(F)F)cc1)Nc1ccc(C(F)(F)F)nc1 [Compound 76, N-[4-(difluoromethoxy)phenyl]-N′-[6-(trifluoromethyl)pyridin-3-yl]urea] | < 2000
15 | O=C(Nc1ccc(OC(F)F)cc1)Nc1ccc(C(F)(F)F)cc1 [Compound 77, N-[4-(difluoromethoxy)phenyl]-N′-[4-(trifluoromethyl)phenyl]urea] | < 2000
16 | Cc1cc(NC(=O)Nc2ccc(OC(F)F)cc2)nc(C)n1 [Compound 78, N-[4-(difluoromethoxy)phenyl]-N′-(2,6-dimethylpyrimidin-4-yl)urea] | < 2000
17 | COc1cc(NC(=O)Nc2ccc(OC(F)F)cc2)ncn1 [Compound 79, N-[4-(difluorornethoxy)phenyl]-N′-(6-methoxypyrimidin-4-yl)urea] | < 2000
18 | O=C(Nc1ccc(OC(F)F)cc1)Nc1ccc2c(c1)CCC2 [Compound 80, N-[4-(difluoromethoxy)phenyl]-N′-(2,3-dihydro-1H-inden-5-yl)urea] | < 2000
19 | O=C(Nc1ccc(OC(F)F)cc1)Nc1ccc(N2CCOCC2)c(Cl)c1 [Compound 81, N-(3-chloro-4-morpholin-4-ylphenyl)-N′-[4-(difluoromethoxy)phenyl]urea] | < 2000
20 | O=C(Nc1ccc(OC(F)F)cc1)Nc1ccc(-n2cnc(Cl)c2Cl)cc1 [Compound 82, N-[4-(4,5-dichloro-1H-imidazol-1-yl)phenyl]-N′-[4-(difluoromethoxy)phenyl]urea] | < 2000
21 | O=C(Nc1ccc(OC(F)F)cc1)Nc1ccc2c(c1)C(=O)CC2 [Compound 83, N-[4-(difluoromethoxy)phenyl]-N′-(3-oxo-2,3-dihydro-1H-inden-5-yl)urea] | < 2000
22 | COc1ccc(NC(=O)Nc2ccc(OC(F)F)cc2)cc1OC1CCCC1 [Compound 84, N-[3-(cyclopentyloxy)-4-methoxyphenyl]-N′-[4-(difluoromethoxy)phenyl]urea] | < 2000
23 | O=C(Nc1ccc(OC(F)F)cc1)Nc1cccc(Oc2ccccc2)c1 [Compound 85, N-[4-(difluoromethoxy)phenyl]-N′-(3-phenoxyphenyl)urea] | < 2000
24 | O=C(Nc1ccc(Oc2ccccc2)cc1)Nc1ccc(OC(F)F)cc1 [Compound 86, N-[4-(difluoromethoxy)phenyl]-N′-(4-phenoxyphenyl)urea] | < 2000

Further lines, results first:

Row | IC50 [nM] | SMILES
25 | < 2000 | COc1cc(NC(=O)Nc2ccc(OC(F)F)cc2)cc(C(F)(F)F)c1 [Compound 87, N-[4-(difluoromethoxy)phenyl]-N′-[3-methoxy-5-(trifluoromethyl)phenyl]urea]
26 | < 2000 | O=C(Nc1ccc(OC(F)F)cc1)Nc1ccc2c(c1)OCCO2 [Compound 88, N-[4-(difluoromethoxy)phenyl]-N′-(2,3-dihydro-1,4-benzodioxin-6-yl)urea]
27 | < 2000 | Cc1cc(C)cc(NC(=O)Nc2ccc(OC(F)F)cc2)c1 [Compound 89, N-[4-(difluoromethoxy)phenyl]-N′-(3,5-dimethylphenyl)urea]
28 | < 2000 | Cc1ccc(NC(=O)Nc2ccc(OC(F)F)cc2)cc1C [Compound 90, N-[4-(difluoromethoxy)phenyl]-N′-(3,4-dimethylphenyl)urea]
29 | < 2000 | COc1cc(NC(=O)Nc2ccc(OC(F)F)cc2)cc(OC)c1 [Compound 91, N-[4-(difluoromethoxy)phenyl]-N′-(3,5-dimethoxyphenyl)urea]
30 | < 2000 | COc1ccc(NC(=O)Nc2ccc(OC(F)F)cc2)cc1OC [Compound 92, N-[4-(difluoromethoxy)phenyl]-N′-(3,4-dimethoxyphenyl)urea]
31 | < 2000 | O=C(Nc1ccc(OC(F)F)cc1)Nc1cc(Cl)cc(Cl)c1 [Compound 93, N-(3,5-dichlorophenyl)-N′-[4-(difluoromethoxy)phenyl]urea]
32 | < 2000 | O=C(Nc1ccc(OC(F)F)cc1)Nc1ccc(Cl)c(Cl)c1 [Compound 94, N-(3,4-dichlorophenyl)-N′-[4-(difluoromethoxy)phenyl]urea]
33 | < 2000 | O=C(Nc1ccc(OC(F)F)cc1)Nc1cccc(OC(F)(F)F)c1 [Compound 95, N-[4-(difluoromethoxy)phenyl]-N′-[3-(trifluoromethoxy)phenyl]urea]
34 | < 2000 | O=C(Nc1ccc(OC(F)F)cc1)Nc1ccc(OC(F)(F)F)cc1 [Compound 96, N-[4-(difluoromethoxy)phenyl]-N′-[4-(trifluoromethoxy)phenyl]urea]
35 | < 2000 | CC(C)Oc1ccc(NC(=O)Nc2ccc(OC(F)F)cc2)cc1 [Compound 97, N-[4-(difluoromethoxy)phenyl]-N′-(4-isopropoxyphenyl)urea]
36 | < 2000 | O=C(Nc1ccc(OC(F)F)cc1)Nc1cccc(-c2ccccc2)c1 [Compound 98, N-biphenyl-3-yl-N′-[4-(difluoromethoxy)phenyl]urea]
37 | < 2000 | O=C(Nc1ccc(OC(F)F)cc1)Nc1ccc(-c2ccccc2)cc1 [Compound 99, N-biphenyl-4-yl-N′-[4-(difluoromethoxy)phenyl]urea]
38 | < 2000 | COc1cc(NC(=O)Nc2ccc(OC(F)(F)F)cc2)ccc1OC(F)F [Compound 100, N-[4-(difluoromethoxy)-3-methoxyphenyl]-N′-[4-(trifluoromethoxy)phenyl]urea]
